Columns and labels:
[1] = Solubility of BPi salts in water and organic solvents; format: physicochemical
[2] = Stability / decomposition rate of BPi in aqueous solution at different pH, monitored by 31P NMR; format: physicochemical
Experimental: The decomposition rate was determined by measuring changes in the integration of the respective NMR signals within 96 h.
BPi is stable in neutral and basic solutions.
The borane reacts with water to liberate hydrogen gas and boric acid.

[3] = Stability of BPi towards selected organic and inorganic reagents (31P NMR); format: physicochemical
Text: The reactivity of BPi towards various organic and inorganic reagents was explored as part of the characterization of BPi's chemical nature. These reagents include: aqueous acid solution, nitrile, amide, carbodiimide, pyridine and imidazole, tosyl chloride, phosphorous oxychloride, H2, and Zn^2+ and Mg^2+ ions.
Although BH3, in complexes with a variety of sulfur/amine/oxygen compounds, is an efficient reducing agent, its reducing nature is drastically altered in Bpi. For instance, while hydrid transfer from “BH3” to water occurs readily, the BH3 moiety in BPi transfers hydride only in a highly acidic solution (pH<2). Likewise, while BH3.
A carbodiimide reagent is used for the condensations of phosphate to provide the corresponding phosphoric anhydride. […] This finding is in contrast to diethylphosphite (cyano- or methoxycarbonyl)borane analogues, which are stable to dicyclohexylecarbodiimide (DCC) (Vyakaranam et al., 2002).
The reactivity of BPi with imidazole and pyridine was studied. […] The reaction of 5′-DMT-2′-deoxy-thymidine with tetramethyl boranopyrophosphate in the presence of N-methylimidazole was reported to proceed with the partial removal of the borane group. Likewise, when pyridine was used as a solvent, partial removal of the borane group was observed (Wada et al., 2002).
The presence of divalent metal ions such as Zn^2+ and Mg^2+ in DMF and water for 48 h and 4 h, respectively, left BPi unchanged.

[4] = Experimental: The ^31P NMR chemical shift was monitored as a function of the pH. A five-parameter sigmoid function was fitted to the data using Sigma Plot 2000 (SPSS, Inc.): δ=δ0+a/[1+e^−((pH-pH0)/b)]^c The inflection point, which is determined by the second derivative of the fitted sigmoid function, is the pKa value.
The acid-base character of BPi was studied by ^31P NMR—monitored pH-titration, as described in Experimental, (v).

[5] = comparison value quoted in the text; cited from earlier work

inorganic boranophosphate [BPi]
water solubility ([1]; in water): high water solubility | stability in neutral and basic solutions ([2]; neutral and basic solutions): stable | t1/2 of degradation to phosphorus acid ([2]; pH 2, room temperature, 31P NMR): 11.5 days | rate of degradation to phosphorus acid ([2]; pH 2, room temperature, 31P NMR, R^2=1.00): 7e-07 s⁻¹ | degradation observed by 31P NMR ([2]; pH 13.7, 48 h, room temperature): no degradation | behaviour under highly acidic conditions ([2]; pH<2, H2 evolved, boric acid and phosphorus acid formed): the P—B bond is cleaved | stability in acidic solution ([2]; pH>2): relatively stable | stability with imidazole ([3]; 2 or 10 equiv. imidazole in CD3OD, 96 h, 31P NMR): remained unchanged | stability with divalent metal ions ([3]; Zn^2+ and Mg^2+ in DMF and water for 48 h and 4 h, respectively): unchanged | stability in acetonitrile and dimethyl formamide ([3]; acetonitrile and dimethyl formamide solutions, no reduction of the solvent): complete stability | stability in pyridine ([3]; solution in pyridine, 113 h): negligible cleavage of the P—B bond

Ammonium Boranophosphate [Compound 2a]
pKa (first inflection point) [4]: 7.12 | pKa (second inflection point) [4]: 12.54 | degraded to phosphorus acid (P—B bond cleavage) ([3]; excess EDC, water pH 6.5, 37° C., 4 h, 31P NMR): 72%

Tributylammonium Boranophosphate [Compound 2b]
solubility in organic solvents ([1]; organic solvents such as MeOH, CH3CN, DMF, CHCl3): dissolves only in organic solvents

O=[PH](O)O [phosphorus acid]
pKa, higher of the two comparison values [5]: 6.2 | pKa, lower of the two comparison values (phosphoric acid: second protonation equilibrium) [5]: 1.8

From patent US7338669B2, “Inorganic boranophosphate salts” (Bar-Ilan University, priority 2005, dated 2008)
